Results as given in patent publication US20220096515A1, “Methods and Formulations for Preventing Neurological or Psychiatric Disorders” (Huntington Medical Research Institutes, priority 2020, published 2022).

Key:
[1] = tested on: CD1 derived endothelial cells, purified from the periventricular plexus; experiment: Long-distance endothelial cell migration assay; type: cell-based, mouse; conditions: vs untreated cells
Method: In preparation for long-distance cell migration assays, square culture inserts (ibidi GmbH) were placed at one end of a 35 mm dish. Cultures of CD1 derived endothelial cells, purified from the periventricular plexus, were plated in the insert and allowed to migrate for 24 hours in endothelial cell culture medium. Endothelial cells were labeled with cell trace marker (CellLight Plasma Membrane-RFP, BacMam 2.0, Invitrogen) to visualize endothelial cell morphologies during subsequent imaging. The migration of endothelial cells from one end of the dish to the other spanning a distance of 3.5 cm was imaged and quantified.
In one experiment, periventricular endothelial cells were isolated from E15 wildtype (CD1) forebrain and tested the effect of NAD^+ addition in vitro. Exogenous addition of 100 μM NAD^+ was able to initiate significant endothelial cell proliferation within 2 days of culture and a 35 mm culture dish was confluent within 4-6 days (FIGS. 2A-2D). This was an interesting observation, since untreated periventricular endothelial cells take approximately 12 days to reach confluency in 35mm dishes, in our well-established culture conditions. […] Vital elements of angiogenesis include effective endothelial cell proliferation, migration, sprouting, alignment, tube formation and branching. […]

Gabrb3^ECKO mice = experiment: Open field locomotor activity; type: in vivo, mouse; conditions: 60 minutes; between the three groups
Method: Behavioral Experiments: Mice were housed in our animal facility with a 12-hour light cycle with ad libitum access to food and water. Offspring stayed with their mothers until weaning at PND 21 after which males and females were separated. Before all behavioral testing, mice were acclimated to the testing room for 1 hour. Behavioral assays were performed according to established protocols referenced here: self-grooming, light-dark box, tail suspension test, Y-maze, open field locomotion activity, three chamber social interaction test and nest building with nestlets and with shredded paper. Both males and females were used for all behavioral assays. Experimenters scoring behaviors were blinded to the genotypes and treatment. Sample sizes for each assay are noted in figure legends.
Anxiety was next assessed with the classic light-dark transition test which triggers a struggle between the desires to explore a novel environment versus natural aversion of a brightly illuminated open space. […] The Y maze spontaneous alternation test was used to evaluate for spatial learning and memory in the three groups of mice. After introduction to the center of the maze, the mice were given free access to all three arms. […] The total number of arm entries and the sequence of entries are recorded in order to calculate the percentage of alternation. […]

[2] = Litter size and pup growth after prenatal treatment; type: in vivo, mouse; conditions: prenatal NAD^+ treatment
[3] = tested on: Gabrb3^ECKO telencephalon; experiment: Prenatal NAD+ treatment (E12-E17), histology/IHC of E18 telencephalon; type: in vivo, mouse
Excerpt: Animals: Timed pregnant CD1 mice were purchased from Charles River laboratories, MA. Colonies of GAD65-GFP mice were maintained in our institutional animal facility. Tie2-cre mice and Gabrb3 floxed (Gabrb3^fl/fl) mice were obtained from Jackson Labs. The Tie2-cre transgene is known for uniform expression of cre-recombinase in endothelial cells during embryogenesis and adulthood. To selectively delete Gabrb3 in endothelial cells, Tie2-cre transgenic mice (males) were crossed to Gabrb3^fl/fl mice (females) to generate Tie2-cre; Gabrb3^fl/+ mice (males). These were further crossed with Gabrb3^fl/fl mice (females) to obtain the Gabrb3 conditional knock-outs (Tie2-cre; Gabrb3^fl/fl mice). The day of plug discovery was designated embryonic day 0 (E0). Animal experiments were in full compliance with the NIH Guide for Care and Use of Laboratory Animals and were approved by the HMRI and McLean Institutional Animal Care Committees.
Histology, immunohistochemistry, and microscopic analysis: Paraffin immunohistochemistry (IHC) was performed on embryonic brains only while frozen section IHC was used on both embryonic and adult brains. Briefly, for paraffin IHC-E18 brains were fixed in zinc fixative (BD Biosciences PharMingen) for 24 h and processed for paraffin histology. Histological stainings with hematoxylin (Vector Laboratories) and eosin (Sigma) were performed on 8 μm coronal sections. Lectin histochemistry (with biotinylated isolectin B4, 1:50, Sigma) as well as IHC was performed on 20 μm sections. Primary antibodies used for IHC were as follows: anti-PHH3 (1:200, Millipore) and anti-NKX2.1, (1:50; Sigma) followed by secondary detection with AlexaFluor conjugates (Invitrogen). DAPI (Vector Laboratories) was used to label nuclei. For frozen section IHC, E18 and P90 brains were removed, fixed in 4% PFA for 24 hours, cryo-protected in sucrose gradient, embedded into OCT medium for frozen blocks; sectioned at 40 μm on a cryostat and immunostained with anti-GABA (1:80, Sigma) and anti -PROX1 (1:80, Millipore) antibodies. Twenty sections from each brain were used for IHC and histology experiments. Uniform penetration of antibodies or stains throughout the section was ascertained and quality of the staining in each digital section was examined. […] All low and high-magnification images were obtained from an FSX100 microscope (Olympus).
Morphometry: A stereological point grid was superimposed on digital images of biotinylated isolectin-B4+ vessels using ImageJ software. The ratio between points falling on blood vessels and on brain tissue was calculated for each section, and average values were obtained.
This vascular deficit in the embryonic telencephalon persisted in the adult cerebral cortex with larger vessel diameters likely correlating with increased perfusion and indicative of functional changes in blood flow in Gabrb3^ECKO vessels. A summary of the embryonic and postnatal phenotype highlights (FIG. 3A) the importance of the endothelial GABA pathway for telencephalic angiogenesis, and for maintaining neuro-vascular interactions. Therefore, given its pro-angiogenic properties (FIGS. 2A-2J), NAD^+ treatment during the prenatal period was tested for its ability to improve angiogenesis in the Gabrb3^ECKO telencephalon. The periventricular ventral-dorsal angiogenesis gradient is established by E11, after which neuronal cells originating from ventricular zones navigate along radial and tangential courses, to adopt final laminar positions and integrate into specific brain circuits. Therefore, the approach was to target only the critical window of mouse prenatal brain development: E12 to E17. In the Gabrb3^ECKO telencephalon, the periventricular vessel gradient is formed normally at E11, but reductions in vascular density and abnormal vascular profiles are observed from E13 onward. […]

## NC(=O)c1ccc[n+]([C@@H]2O[C@H](COP(=O)([O-])OP(=O)(O)OC[C@H]3O[C@@H](n4cnc5c(N)ncnc54)[C@H](O)[C@@H]3O)[C@@H](O)[C@H]2O)c1 [NAD^+]
[1]
  long-distance migration of endothelial cells (cell number): robust long-distance migration
Gabrb3^ECKO mice
  open field locomotor activity: no significant differences
[2]
  growth of pups: grew normally to adulthood
  litter size: did not have any effect on litter size
[3]; 10 mg in 100 μl saline i.p. daily to pregnant dams E12-E17, E18, vs saline-treated Gabrb3^ECKO
  periventricular vessel densities: significant improvement in periventricular vessel densities
[3]; E18
  NKX2.1 expression in MGE: significantly enriched in the MGE
  PROX1 expression: significantly increased
  number of PHH3^+ cells at VZ/SVZ surface of ventral telencephalon: significantly increased the number of PHH3^+ cells
  profile of GABAergic neurons (GABA immunoreactivity): restored
[3]; E18, 20 μm sections
  vascular patterns around lateral ventricle / ganglionic eminence: uniform vascular patterns were restored
[3]; NAD^+-treated Gabrb3^ECKO mice, E18
  cell cluster in MGE (H&E): a cluster of cells were observed in the medial ganglionic eminence (MGE)
[3]; treatment E12 to E17, E18
  overall morphology of telencephalon (H&E): significantly improved the overall morphology
